Laboratory results from patent US8263610B2, “Substituted imidazolyl-5,6-dihydrobenzo[N]isoquinoline compounds” (ArQule, Inc., priority 2008, dated 2012).

Assays:
FGFR2(N549H) = target: T1, FGFR2(N549H) (Homo sapiens, UniProt P21802, N549H); test: fluorescent ELISA assay for inhibitors of FGFR2 kinase; type: biochemical; settings: 37 μM Pyk2 substrate, 12.5 μM ATP, 0.5 μM FGFR2 enzyme, 60 minutes
T1 construct: purchased Millipore 14-742
Experimental: The enzymatic assays described herein are conducted according to the following procedures from commercially available reagents. In one, non limiting, example, a fluorescent ELISA assay is used to identify and characterize inhibitors of FGFR2 kinase as described herein. This heterogeneous assay utilizes a biotinylated peptide with a tyrosine motif as a substrate and an anti-phospho-tyrosine antibody to measure phosphorylation of the substrate. The reaction is initiated by adding the test compound, 37 μM Pyk2 substrate (Midwest Biotech, Cat. #MBT2383), 12.5 μM ATP (Roche, Cat. #11 140 965 001) and 0.5 μM FGFR2 enzyme (Millipore, Cat. #14-742) sequentially to a non-binding polypropylene V-well plate. All reagents are in an assay buffer consisting of: 50 mM Tris-HCL, 0.02 mg/ml BSA, 10 mM MgCl2, 0.1 mM Na3VO4, 1 mM EGTA, 75 μM ATP, 0.01% NP-40, 2 mM DTT and 10% glycerol. The reaction is incubated for 60 minutes. As the reaction proceeds, FGFR2 phosphorylates tyrosines in the peptide. The reaction mixture is then moved to a blocked streptavidin-coated Nunc Maxisorb plate (coated with 100 ng streptavidin from Pierce (Cat. #15-124) per well), allowing for the capture of the biotinylated peptide. Peptides are captured for 30 minutes at room temperature, the phosphorylation of peptides continues during this phase. The reaction is stopped by washing the streptavidin-coated plate 6 times with TBST. Phosphorylated peptide is detected by adding anti-phospho-tyrosine antibody (Cell Signaling, Cat. #9411, diluted 1:3000) to the streptavidin-coated plate. Unbound anti-phospho-tyrosine antibody is removed by washing the streptavidin-coated plate 6 times with TBST. Secondary detection is performed using alkaline phosphatase tagged goat anti-mouse antibody (Pierce, Cat. #31320, diluted 1:4000) for one hour. Unbound secondary antibody is removed by washing the streptavidin-coated plate 6 times with TBST. The fluorescent readout is initiated by adding to the streptavidin-coated plate Promega Attophos substrate (Promega, Cat. #S1000, dilution=6 mg/10 ml), which, when dephosphorylated by alkaline phosphatase, emits a fluorescent signal of 595 nm in wavelength when excited by a signal of 400 nm in wavelength. The reading of the 595 nm signal is done on the Perkin Elmer Envision system. Compounds which prevent FGFR2 from phosphorylating the peptide result in a lower fluorescent signal. The 595 nm fluorescent signal is directly proportional to the activity of FGFR2. Thus, the inhibition of FGFR2 by compounds is monitored by the decrease in the 595 nm fluorescent signal.

DLD-1 cells = test: MTS assay, inhibition of cell growth; type: cell-based; settings: Homo sapiens, compound at 10 μM, 72 hours
Experimental: (§1) MDA-MB-231, DLD-1, Kato III NCI-H1299, PACA-2 cells, were maintained at 37° C., 5% CO2 in DMEM media supplemented with 10% fetal bovine serum, penicillin/streptomycin and fungizone (Invitrogen). Cells were seeded into 96-well tissue culture plates at 3000 per well and cultured at 37° C. for 18 hours. Test compounds were dissolved and diluted to 300× in DMSO then further diluted 1:40 in DMEM before addition to cells (1:7.5 dilution). Cells were incubated with test compounds for 72 hours followed by incubation with tetrazolium compound (3-(4,5-dimethylthiazol-2-yl)-5-(3-carboxymethoxyphenyl)-2-(4-sulfophenyl)-2H-tetrazolium, inner salt; MTS) and the electron coupling reagent, phenazine methosulfate (PMS) for 4 hours. […] The ability of compounds to inhibit cell growth in this assay is correlated with the reduction of dehydrogenase enzyme activity found in metabolically active cells. The measurement of the absorbance of the formazan was assessed using an ENVISION™ (Perkin Elmer) microplate reader at 492 nm.

NCI-H1299 cells = test: MTS assay, inhibition of cell growth; type: cell-based; settings: Homo sapiens, compound at 10 μM, 72 hours
Experimental: as §1

MDA-MB-231 cells = test: MTS assay, inhibition of cell growth; type: cell-based; settings: Homo sapiens, compound at 10 μM, 72 hours
Experimental: as §1

Kato III cells = test: MTS assay, inhibition of cell growth; type: cell-based; settings: Homo sapiens, compound at 10 μM, 72 hours
Experimental: as §1

PACA-2 cells = test: MTS assay, inhibition of cell growth; type: cell-based; settings: compound at 10 μM, 72 hours
Experimental: as §1

T1 sequence (P21802 22-821 N549H): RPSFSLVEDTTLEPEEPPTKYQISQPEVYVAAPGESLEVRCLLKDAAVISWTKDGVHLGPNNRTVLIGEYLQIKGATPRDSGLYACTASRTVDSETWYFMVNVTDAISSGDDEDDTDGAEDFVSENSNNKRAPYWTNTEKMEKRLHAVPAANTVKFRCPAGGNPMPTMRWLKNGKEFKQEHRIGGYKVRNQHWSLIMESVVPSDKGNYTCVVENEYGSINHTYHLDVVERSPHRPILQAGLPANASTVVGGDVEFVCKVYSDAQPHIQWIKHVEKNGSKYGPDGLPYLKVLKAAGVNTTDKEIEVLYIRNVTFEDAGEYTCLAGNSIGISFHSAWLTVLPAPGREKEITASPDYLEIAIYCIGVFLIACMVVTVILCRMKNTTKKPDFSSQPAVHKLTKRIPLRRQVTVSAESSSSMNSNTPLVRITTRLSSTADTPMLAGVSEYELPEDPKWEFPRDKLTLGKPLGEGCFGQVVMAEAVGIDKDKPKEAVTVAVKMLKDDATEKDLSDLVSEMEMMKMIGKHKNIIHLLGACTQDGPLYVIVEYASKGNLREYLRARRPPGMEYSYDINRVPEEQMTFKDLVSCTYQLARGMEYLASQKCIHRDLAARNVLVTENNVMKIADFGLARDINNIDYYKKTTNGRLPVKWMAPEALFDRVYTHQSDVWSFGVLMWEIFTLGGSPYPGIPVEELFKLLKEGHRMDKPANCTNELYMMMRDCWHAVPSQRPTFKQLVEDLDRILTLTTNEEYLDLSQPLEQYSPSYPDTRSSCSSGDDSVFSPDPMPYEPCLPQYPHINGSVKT

| IC50 (FGFR2(N549H)) | Structure (SMILES) | inhibition at 10 µM (DLD-1 cells) | inhibition at 10 µM (NCI-H1299 cells) | inhibition at 10 µM (MDA-MB-231 cells) | inhibition at 10 µM (Kato III cells) | inhibition at 10 µM (PACA-2 cells) |
| --- | --- | --- | --- | --- | --- | --- |
| 4.07 µM | Fc1ccc(C2Cc3cnc4[nH]ncc4c3-c3ccccc32)cc1 (centres unmarked) [7-(4-fluorophenyl)-6,7-dihydro-3H-benzo[f]pyrazolo[3,4-c]isoquinoline] | – | – | – | – | – |
| 20.8 µM | Clc1ccc(C2Cc3cnc4[nH]ncc4c3-c3ccccc32)cc1Cl (centres unmarked) [7-(3,4-dichlorophenyl)-6,7-dihydro-3H-benzo[f]pyrazolo[3,4-c]isoquinoline] | – | – | – | – | – |
| 2.51 µM | Clc1ccc(C2Cc3cnc4[nH]ncc4c3-c3ccccc32)c(Cl)c1 (centres unmarked) [7-(2,4-dichlorophenyl)-6,7-dihydro-3H-benzo[f]pyrazolo[3,4-c]isoquinoline] | – | – | – | – | – |
| 6.81 µM | Cc1cc(C)c2c(c1)-c1c(cnc3[nH]ncc13)CC2 [8,10-dimethyl-6,7-dihydro-3H-benzo[f]pyrazolo[3,4-c]isoquinoline] | – | – | – | – | – |
| – | Nc1nc(N2CCc3c(cnc4[nH]ncc34)C2)c2nc[nH]c2n1 [6-(3,6,8,9-tetrahydro-7H-pyrazolo[3,4-c][2,7]naphthyridin-7-yl)-9H-purin-2-amine] | 75 to 100% | 75 to 100% | 75 to 100% | 75 to 100% | 75 to 100% |
| – | O=C(NCCc1cccc(Cl)c1)c1cccc(NC(=O)N2CCc3c(cnc4[nH]ncc34)C2)c1 [N-(3-{[2-(3-chlorophenyl)ethyl]carbamoyl}phenyl)-3,6,8,9-tetrahydro-7H-pyrazolo[3,4-c][2,7]naphthyridine-7-carboxamide] | 75 to 100% | 25 to 49% | 75 to 100% | 75 to 100% | 75 to 100% |
| – | FC(F)(F)c1cccc(CNc2ncc3c(n2)CCc2cnc4[nH]ncc4c2-3)c1 [N-[3-(trifluoromethyl)benzyl]-6,7-dihydro-3H-pyrazolo[4′,3′:5,6]pyrido[4,3-f]quinazolin-9-amine] | 75 to 100% | 75 to 100% | 75 to 100% | 75 to 100% | 75 to 100% |
| 0.224 µM | c1ccc(C2Cc3cnc4[nH]ncc4c3-c3ccccc32)cc1 (centres unmarked) [7-phenyl-6,7-dihydro-3H-benzo[f]pyrazolo[3,4-c]isoquinoline] | – | – | – | – | – |
| – | O=C(Nc1ccccc1)N1CCc2c(cnc3[nH]nc(-c4cccc(C(F)(F)F)c4)c23)C1 [N-phenyl-1-[3-(trifluoromethyl)phenyl]-3,6,8,9-tetrahydro-7H-pyrazolo[3,4-c][2,7]naphthyridine-7-carboxamide] | 75 to 100% | 75 to 100% | 75 to 100% | 75 to 100% | 75 to 100% |
| – | Cc1nc(-c2cccc(NC(=O)N3CCc4c(cnc5[nH]nc(Br)c45)C3)c2)cs1 [drawing 580, 1-bromo-N-[3-(2-methyl-1,3-thiazol-4-yl)phenyl]-3,6,8,9-tetrahydro-7H-pyrazolo[3,4-c][2,7]naphthyridine-7-carboxamide] | 75 to 100% | 50 to 74% | < 24% | 75 to 100% | 25 to 49% |
| – | O=S(=O)(c1cccs1)N1CCc2c(cnc3[nH]ncc23)C1 [7-(2-thienylsulfonyl)-6,7,8,9-tetrahydro-3H-pyrazolo[3,4-c][2,7]naphthyridine] | 75 to 100% | 75 to 100% | 75 to 100% | 75 to 100% | 75 to 100% |
| – | c1nc2[nH]ncc2c2c1CNCC2 [6,7,8,9-tetrahydro-3H-pyrazolo[3,4-c][2,7]naphthyridine] | 75 to 100% | 25 to 49% | 75 to 100% | 25 to 49% | 75 to 100% |
| – | O=S(=O)(NC1CCc2c(cnc3[nH]ncc23)C1)c1ccccc1 (centres unmarked) [drawing 563, N-(6,7,8,9-tetrahydro-3H-pyrazolo[3,4-c]isoquinolin-7-yl)benzenesulfonamide] | 75 to 100% | 25 to 49% | 75 to 100% | 75 to 100% | 75 to 100% |
| – | O=C(C(c1ccccc1)N1CCNCC1)N1CCc2c(cnc3[nH]nc(Br)c23)C1 (centres unmarked) [1-bromo-7-[phenyl(piperperazin-1-yl)acetyl]-6,7,8,9-tetrahydro-3H-pyrazolo[3,4-c][2,7]naphthyridine] | 75 to 100% | 75 to 100% | 75 to 100% | 75 to 100% | 75 to 100% |
